Assay results: patent publication US20220289727A1, “ENZYME INHIBITORS” (KALVISTA PHARMACEUTICALS LIMITED, priority 2019, published 2022)
pIC50: −log10 of the molar value.

Legend:
Human FXIa = biological target: T1, Human FXIa (Homo sapiens, UniProt P03951); assay: Determination of FXIa inhibitory activity in vitro (fluorogenic substrate Z-Gly-Pro-Arg-AFC); format: biochemical; conditions: selectivity, 25° C., residual enzyme activity (initial rate)
T1 construct: Human FXIa (Enzyme Research Laboratories) was incubated; purchased Enzyme Research Laboratories

Human Factor XIIa = biological target: T2, Human Factor XIIa (Homo sapiens, UniProt P00748); assay: Determination of FXIIa inhibitory activity in vitro (fluorogenic substrate H-DPro-Phe-Arg-AFC); format: biochemical; conditions: 25° C., residual enzyme activity (initial rate)
T2 construct: Human Factor XIIa (Enzyme Research Laboratories) was incubated; purchased Enzyme Research Laboratories
T2 sequence (P00748 373-615 limits assumed): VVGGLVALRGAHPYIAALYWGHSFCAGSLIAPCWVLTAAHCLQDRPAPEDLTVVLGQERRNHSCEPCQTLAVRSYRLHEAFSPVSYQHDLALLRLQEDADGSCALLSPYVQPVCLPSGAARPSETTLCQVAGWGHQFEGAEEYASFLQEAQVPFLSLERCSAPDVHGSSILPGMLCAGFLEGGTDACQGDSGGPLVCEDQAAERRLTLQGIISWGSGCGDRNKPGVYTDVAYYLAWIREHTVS
T2 sequence (P00748 20-372 partner limits assumed): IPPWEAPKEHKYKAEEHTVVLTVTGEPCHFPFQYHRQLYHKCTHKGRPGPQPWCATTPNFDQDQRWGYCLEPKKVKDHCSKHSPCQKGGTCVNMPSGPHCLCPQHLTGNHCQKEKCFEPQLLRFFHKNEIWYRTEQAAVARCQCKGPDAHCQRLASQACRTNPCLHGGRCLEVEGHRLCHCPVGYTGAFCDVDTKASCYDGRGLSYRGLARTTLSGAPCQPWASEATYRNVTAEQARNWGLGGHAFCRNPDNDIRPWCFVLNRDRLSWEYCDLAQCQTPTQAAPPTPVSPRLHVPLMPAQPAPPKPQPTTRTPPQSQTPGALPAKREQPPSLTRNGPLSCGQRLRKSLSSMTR

T1 sequence (P03951 388-625 limits assumed): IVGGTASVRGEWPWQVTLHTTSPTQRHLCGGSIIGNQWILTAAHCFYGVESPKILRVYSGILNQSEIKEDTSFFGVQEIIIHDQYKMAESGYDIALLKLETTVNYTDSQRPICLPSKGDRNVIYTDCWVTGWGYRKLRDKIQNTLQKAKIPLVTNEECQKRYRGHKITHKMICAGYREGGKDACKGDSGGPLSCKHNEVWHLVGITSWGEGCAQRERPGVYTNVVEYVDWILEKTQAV
T1 sequence (P03951 19-387 partner limits assumed): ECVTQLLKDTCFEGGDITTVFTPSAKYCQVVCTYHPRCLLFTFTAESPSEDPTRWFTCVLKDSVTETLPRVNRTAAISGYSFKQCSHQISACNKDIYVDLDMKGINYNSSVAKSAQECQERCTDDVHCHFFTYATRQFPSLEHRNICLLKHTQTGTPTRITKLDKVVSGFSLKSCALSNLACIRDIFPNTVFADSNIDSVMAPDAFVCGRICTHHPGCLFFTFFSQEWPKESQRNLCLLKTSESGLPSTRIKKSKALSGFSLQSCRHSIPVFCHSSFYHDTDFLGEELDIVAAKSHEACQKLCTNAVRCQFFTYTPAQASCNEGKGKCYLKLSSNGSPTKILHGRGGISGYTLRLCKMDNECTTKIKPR

Compound | pIC50 (Human FXIa) | pIC50 (Human Factor XIIa)
Nc1nccc2cc(CNC(=O)c3cc(Cl)c(CNCC4CCN(c5ccncc5)CC4)s3)ccc12 [Example 2.36, N-[(1-Aminoisoquinolin-6-yl)methyl]-4-chloro-5-[({[1-(pyridin-4-yl)piperidin-4-yl]methyl}amino)methyl]thiophene-2-carboxamide] | 4.12 | 5.52 to 6.00
Nc1nccc2cc(CNC(=O)c3cc(Cl)c(CNCc4ccc(N5CCCC5=O)cc4)s3)ccc12 [Example 2.58] | < 4.40 | 5.00 to 5.52
Nc1nccc2cc(CNC(=O)c3cc(Cl)c(CN4CCN(c5ccncc5)CC4)s3)ccc12 [Example 5.12] | < 4.40 | 5.00 to 5.52
Nc1nccc2cc(CNC(=O)c3cc(Cl)c(CN4CCN(c5cccnc5)CC4)s3)ccc12 [Example 5.16] | < 4.40 | 5.00 to 5.52
Nc1nccc2cc(CNC(=O)c3cc(Cl)c(CN4CCN(c5ccccn5)CC4)s3)ccc12 [Example 5.17] | < 4.40 | 4.40 to 5.00
Nc1nccc2cc(CNC(=O)c3cc(Cl)c(CN4CC[C@@H](Nc5cccnc5)C4)s3)ccc12 [Example 5.18, N-[(1-Amino-6-isoquinolyl)methyl]-4-chloro-5-[[(3R)-3-(3-pyridylamino)pyrrolidin-1-yl]methyl]thiophene-2-carboxamide] | 4.42 | 4.40 to 5.00
Nc1nccc2cc(CNC(=O)c3cc(Cl)c(CN4Cc5ccncc5C4)s3)ccc12 [Example 5.19] | 4.53 | 5.00 to 5.52
Cc1cc(C(=O)NCc2ccc3c(N)nccc3c2)sc1CN1CCN(c2ccncc2)CC1 [Example 5.20, N-[(1-Amino-6-isoquinolyl)methyl]-4-methyl-5-[[4-(4-pyridyl)piperazin-1-yl]methyl]thiophene-2-carboxamide] | < 4.40 | 4.40 to 5.00
Nc1nccc2cc(CNC(=O)c3cc(Cl)c(CN4CC[C@H](Nc5cccnc5)C4)s3)ccc12 [Example 5.21] | < 4.40 | 4.40 to 5.00
Nc1nccc2cc(CNC(=O)c3cc(Cl)c(CN4CCc5ccncc5C4)s3)ccc12 [Example 5.22] | < 4.40 | 5.00 to 5.52
Nc1nccc2c1CC[C@H]2NC(=O)c1cc(Cl)c(CN2CCN(c3ccncc3)CC2)s1 [Example 5.23, N-[(5R)-1-Amino-6,7-dihydro-5H-cyclopenta[c]pyridin-5-yl]-4-chloro-5-[[4-(4-pyridyl)piperazin-1-yl]methyl]thiophene-2-carboxamide] | 5.08 | 4.40 to 5.00
Cc1cc(C(=O)NCc2ccc3c(N)nccc3c2)sc1CN1CCCN(c2ccncc2)CC1 [Example 5.24, N-((1-Aminoisoquinolin-6-yl)methyl)-4-methyl-5-((4-(pyridin-4-yl)-1,4-diazepan-1-yl)methyl) thiophene-2-carboxamide] | < 4.40 | 5.00 to 5.52
Cc1cc(C(=O)NCc2ccc3c(N)nccc3c2)sc1CN1CC(Oc2ccncc2)C1 [Example 5.25, N-[(1-Amino-6-isoquinolyl)methyl]-4-methyl-5-[[3-(4-pyridyloxy)azetidin-1-yl]methyl]thiophene-2-carboxamide] | < 4.40 | 4.40 to 5.00
Cc1cc(C(=O)NCc2ccc3c(N)nccc3c2)sc1CN1CCN(c2ccncn2)CC1 [Example 5.26, N-((1-Aminoisoquinolin-6-yl)methyl)-4-methyl-5-((4-(pyrimidin-4-yl)piperazin-1-yl)methyl) thiophene-2-carboxamide] | < 4.40 | 4.40 to 5.00
Cc1cc(C(=O)NCc2ccc3c(N)nccc3c2)sc1CN1CCN(c2ccn(C)c(=O)c2)CC1 [Example 5.27] | < 4.40 | 4.40 to 5.00
Cc1cc(C(=O)NCc2ccc3c(N)nccc3c2)sc1CN1CCN(c2cnn(C)c2)CC1 [Example 5.28] | < 4.40 | 4.40 to 5.00
Cc1cc(C(=O)NCc2ccc3c(N)nccc3c2)sc1CN1CCN(c2cc[nH]c(=O)c2)CC1 [Example 5.29] | 4.41 | 4.40 to 5.00
CNS(=O)(=O)c1sc(C(=O)NCc2ccc3c(N)nccc3c2)cc1Br [Example 25.07] | < 4.40 | 5.52 to 6.00
Nc1nccc2cc(CNC(=O)c3cc(Cl)c(Cc4ccccc4)s3)ccc12 [Example 25.08] | < 4.40 | 4.40 to 5.00
CN1CCC(c2ccc(C(=O)NCc3ccc4c(N)nccc4c3)s2)CC1 [Example 25.09] | < 4.40 | 4.40 to 5.00
CN1CCC(Cc2sc(C(=O)NCc3ccc4c(N)nccc4c3)cc2Cl)CC1 [Example 25.10] | < 4.40 | 5.00 to 5.52
Cc1cc(CN)cc(C)c1CNC(=O)c1cc(Cl)c(C)s1 [Example 25.102, N-(4-(Aminomethyl)-2,6-dimethylbenzyl)-4-chloro-5-methylthiophene-2-carboxamide] | < 4.40 | 5.00 to 5.52
Cc1sc(C(=O)NCc2cc3c(N)nccc3s2)cc1Cl [Example 25.103, N-((4-aminothieno[3,2-c]pyridin-2-yl)methyl)-4-chloro-5-methylthiophene-2-carboxamide] | – | 4.40 to 5.00
Cc1sc(C(=O)NCc2ccc3c(N)nccc3c2F)cc1Cl [Example 25.104, N-((1-Amino-5-fluoroisoquinolin-6-yl)methyl)-4-chloro-5-methylthiophene-2-carboxamide] | – | 4.40 to 5.00
Cc1cc(N)nc(C)c1CNC(=O)c1cc(Cl)c(C)s1 [Example 25.105, N-[(6-Amino-2,4-dimethylpyridin-3-yl)methyl]-4-chloro-5-methylthiophene-2-carboxamide] | – | 4.15 to 4.40

Compound | pIC50 (Human FXIa) | pIC50 (Human Factor XIIa)
CN1CCC(Cn2c(C(=O)NCc3ccc4c(N)nccc4c3)cc3ccccc32)CC1 [Example 25.201] | < 4.40 | 5.00 to 5.52
CCN1CCC(Cn2c(C(=O)NCc3ccc4c(N)nccc4c3)nc3ccccc32)CC1 [Example 25.202] | < 4.40 | 5.52 to 6.00
Nc1nccc2cc(CNC(=O)c3cc4c(Cl)cccc4s3)ccc12 [Example 25.203, N-((1-Aminoisoquinolin-6-yl)methyl)-4-chlorobenzo[b]thiophene-2-carboxamide] | < 4.40 | 5.52 to 6.00
Nc1nccc2cc(CNC(=O)c3cc4cccc(Cl)c4s3)ccc12 [Example 25.204] | – | 4.40 to 5.00
Nc1nccc2cc(CNC(=O)c3cc4cc(F)ccc4s3)ccc12 [Example 25.205] | – | 5.00 to 5.52
Nc1nccc2cc(CNC(=O)c3cc4c(F)cccc4s3)ccc12 [Example 25.206] | – | 4.40 to 5.00
Nc1nccc2cc(CNC(=O)c3cc4c(Cl)cccc4[nH]3)ccc12 [Example 25.207] | < 4.40 | 5.52 to 6.00
CN1CCC(Nc2cccc3sc(C(=O)NCc4ccc5c(N)nccc5c4)cc23)CC1 [Example 25.208] | – | 5.00 to 5.52
CN1CCC(CNc2cccc3sc(C(=O)NCc4ccc5c(N)nccc5c4)cc23)CC1 [Example 25.209] | – | 5.00 to 5.52
CN1CCC(CNc2cnn(C)c2C(=O)NCc2ccc3c(N)nccc3c2)CC1 [Example 26.01] | < 4.40 | 5.00 to 5.52
Cc1n[nH]c(C(=O)NCc2ccc3c(N)nccc3c2)c1NCC1CCN(C)CC1 [Example 26.02] | < 4.40 | 4.40 to 5.00
Cc1cc(OCC2CCN(C)CC2)c(C(=O)NCc2ccc3c(N)nccc3c2)s1 [Example 26.04] | < 4.40 | 4.40 to 5.00
Cc1sc(C(=O)NCc2ccc3c(N)nccc3c2)c(NCC2CCN(C)CC2)c1C [Example 26.11] | – | 5.00 to 5.52
Cc1cc(CCC2CCN(C)CC2)c(C(=O)NCc2ccc3c(N)nccc3c2)s1 [Example 26.12] | – | 5.00 to 5.52
CN1CCC(CNc2ccsc2C(=O)NCc2ccc3c(N)nccc3c2)CC1 [Example 26.13] | – | 5.00 to 5.52
Cc1nsc(C(=O)NCc2ccc3c(N)nccc3c2)c1NCC1CCNCC1 [Example 26.14] | – | 4.40 to 5.00
Cc1nsc(C(=O)NCc2ccc3c(N)nccc3c2)c1NCC1CCN(C)CC1 [Example 26.15] | – | 5.00 to 5.52
CN1CCC(CNc2ncsc2C(=O)NCc2ccc3c(N)nccc3c2)CC1 [Example 26.16, N-((1-Aminoisoquinolin-6-yl)methyl)-4-(((1-methylpiperidin-4-yl)methyl)amino)thiazole-5-carboxamide] | – | 5.52 to 6.00
CN1CCC(CCCn2nccc2C(=O)NCc2ccc3c(N)nccc3c2)CC1 [Example 35.08] | – | 5.52 to 6.00
CCOc1ccc(Cn2nccc2C(=O)NCc2ccc3c(N)nccc3c2)cc1 [Example 35.09] | – | 4.40 to 5.00
CN1CCC(CCn2nccc2C(=O)NCc2cc3c(N)nccc3s2)CC1 [Example 46.01, N-((4-aminothieno[3,2-c]pyridin-2-yl)methyl)-1-(2-(1-methylpiperidin-4-yl)ethyl)-1H-pyrazole-5-carboxamide] | – | 4.40 to 5.00
Cc1c(C(=O)NCc2ccc3c(N)nccc3c2)cc(-c2ccccc2)n1CCCN1CCOCC1 [Example 51.01] | – | 4.40 to 5.00
CN1CCC(CCn2ccc(C(=O)NCc3ccc4c(N)nccc4c3)n2)CC1 [Example 51.06] | – | 5.52 to 6.00
CN1CCC(CCCn2ccc(C(=O)NCc3ccc4c(N)nccc4c3)n2)CC1 [Example 51.07] | – | 5.52 to 6.00
CC(=O)N1CCC(CCn2ccc(C(=O)NCc3ccc4c(N)nccc4c3)n2)CC1 [Example 51.08] | – | 4.40 to 5.00
